Source: article PMC9981671, “rRNA methylation by Spb1 regulates the GTPase activity of Nog2 during 60S ribosomal subunit assembly” (Nature Communications, 2023)

Target: Nog2 (Saccharomyces cerevisiae, UniProt P53742)
Test: cryo-EM structure of native pre-60S particle, […] A
Format: binding
Settings: Nog2pre from spb1 D52A strain (unmethylated G2922); GTPase site with Mg2+ and K+; pH 8.0; also Nog2post (7UUI) and Nog2pre from spb1 D52A/E769K strain (7V08)

Sequence of Nog2 (P53742 whole entry): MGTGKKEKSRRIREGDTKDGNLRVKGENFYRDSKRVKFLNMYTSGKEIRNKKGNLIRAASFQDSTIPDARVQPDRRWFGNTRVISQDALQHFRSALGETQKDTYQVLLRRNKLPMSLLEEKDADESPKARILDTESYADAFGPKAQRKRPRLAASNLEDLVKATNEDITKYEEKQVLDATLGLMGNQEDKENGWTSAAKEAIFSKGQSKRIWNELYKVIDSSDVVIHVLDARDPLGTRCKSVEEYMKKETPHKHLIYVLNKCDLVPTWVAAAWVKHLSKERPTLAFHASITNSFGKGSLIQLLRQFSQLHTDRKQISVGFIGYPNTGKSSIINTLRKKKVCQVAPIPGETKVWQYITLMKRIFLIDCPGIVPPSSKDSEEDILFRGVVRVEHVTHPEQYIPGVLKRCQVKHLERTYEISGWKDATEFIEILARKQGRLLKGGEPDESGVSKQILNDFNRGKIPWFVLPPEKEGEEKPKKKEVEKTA

In the case of `Nc1nc2c(ncn2[C@@H]2O[C@H](COP(=O)(O)OP(=O)(O)O)[C@@H](O)[C@H]2O)c(=O)[nH]1` [GDP], the “cryo-EM structure of native pre-60S particle, 2.4 A” value is reported as “GTP hydrolysis has taken place and that GDP occupies the Nog2 active site”.
